Data from patent US20110071124A1, “Compounds that Inhibit Production of sAPPB and AB and Uses Thereof” (The Trustees of Columbia University in the City of New York, priority 2008, published 2011).

Legend:
[1] = test system: sAPPβ in Lenti-APPsw infected primary cortical neurons; assay: sAPPβ IP-Western in Lenti-APPsw infected primary cortical neurons; format: cell-based, mouse; conditions: 20 μM, 24 hours, normalized to APP
Procedure: FIG. 15A-D. LDN-0057228 reduces Aβ40 and sAPPβ in primary neurons. DIV-14 primary cortical neurons from wild-type mice were incubated for 24 hours with primary culture media containing lentivirus harboring APPsw. After infection, neurons were incubated for 48 hours with 1:1 fresh to conditioned media to allow for APP expression. Neurons were then treated with LDN-0057228 at 20 μM for 24 hours in triplicate. A) Media was collected for Aβ40 ELISA. Raw Aβ40 values were normalized to APP to control for variations in lentiviral infection efficiency. B) Cell lysates were probed with 6E10 antibody to visualize the transduced full-length APP. C) sAPPβ from neuron culture media was immunoprecipitated with sβsw antibody and probed with LN27. D) Quantification of sAPPβ, normalized to APP. Data in A) and […]) represent mean+s.d. of 3 wells. Bands from B) and C) were quantified using ImageJ software.
Using this experimental paradigm, LDN-0057228 was tested at 20 μM concentration to confirm the sAPPβ- and Aβ-lowering activity of the compound (FIG. 15). The protocol was modified slightly to allow for 24-hour compound treatment. […]
LDN-0057228 caused a 75% reduction in Aβ40 levels (p<0.05) in primary neurons (FIG. 15A). […] The sAPPβ bands were quantified using ImageJ software and normalized to APP, showing a 40% reduction in sAPPβ (p<0.01) for the treated neurons (FIG. 15D).

[2] = weight and overt toxicity in treated Tg2576 mice; format: in vivo; conditions: 3 mg/kg intraperitoneal, 9 days
Procedure: A total of 16 mice were treated with either DMSO (n=8) or 3 mg/kg CNS-2 (n=8). The dosage was selected arbitrarily based on compound solubility in 0.9% normal saline. CNS-2 was dissolved in 0.9% normal saline solution with 1.9% final DMSO concentration. 12- to 13-month old Tg2576 mice were treated with DMSO or CNS-2 via intraperitoneal injection for 9 days (1 injection per day) at an injection volume of 20 μl per gram of weight. Mouse weight was monitored daily, and the total injection volume adjusted accordingly over the course of the 9-day treatment. […] Mice were sacrificed on day 9, 5 hours after the final injection. One hemibrain from each mouse was homogenized and processed for formic acid extraction of plaque Aβ. Total Aβ40 was determined by Aβ ELISA kit and normalized to total protein (FIG. 18).

| Structure (SMILES) | reduction in sAPPβ [1] | changes in weight and overt signs of toxicity [2] |
| --- | --- | --- |
| Fc1ccc(C(OCCN2CCC[C@H]2CNCCc2ccccc2)c2ccc(F)cc2)cc1 [LDN-0057228] | 40% | – |
| O=C(CCc1ccccc1)NC[C@@H]1CCCN1CCOC(c1ccc(F)cc1)c1ccc(F)cc1 [CNS-2] | – | Neither the treated nor control groups exhibited any significant changes in weight or any overt signs of toxicity |
